Like-named read-outs stand apart in the source and are kept apart here.
Legend:
[1] = system: MV522; test: cells; format: cell-based; details: Homo sapiens, MV522, 48 h, read-out: 48 hour IC50
[2] = system: SL-2, murine (thymic); test: inhibition of thymidine incorporation after two hour exposure, SL-2; format: cell-based; details: Mus musculus, 2 h; Table 1; SL-2, two hour exposure
Method: (§1) To assess cytotoxic effects, various concentrations of illudins were added to cultures of cells for 48 hours, then cell growth/viability was determined by trypan blue exclusion. As an alternative to 48 hour continuous exposure studies, cells were plated in liquid culture in 96 well plates, exposed to various concentrations of illudins for 2 hours, pulsed with [^3 H]-thymidine for one to two hours and harvested onto glass filters. The filter papers were added to vials containing scintillation fluid and residual radioactivity determined in a beta (scintillation) counter.
(§2) two hour exposure to the toxins (N - 3).

[3] = system: C1498 cells; test: C1498 syngeneic mouse AML model, increased life span; format: in vivo
Method: In collaboration, the in vivo effects of dehydroilludin M was again studied. Initially the compound was studied against L1210 cells. […] The dehydroilludin M was then administered as a 24 hour infusion (5.0 mg/kg); the ILS was 11%. After we became aware of the presence of the energy-dependent uptake in human myelocytic cells, dehydroilludin M was screened for in vivo […], produced an ILS of 35%.

[4] = system: L1210 parent cells; test: sensitivity of mdr lines, L1210 parent; format: cell-based; details: Mus musculus
[5] = system: CEM VLB100 (gp170+) variant cells; test: sensitivity of mdr lines, CEM VLB100; format: cell-based
[6] = system: 242, melanoma; test: inhibition of thymidine incorporation after two hour exposure, 242; format: cell-based; details: 2 h; Table 1; 242, two hour exposure
Method: as §1, §2

[7] = system: CEM AraC variant cells; test: sensitivity of mdr lines, CEM AraC; format: cell-based
[8] = system: MDA-231 parent (Breast) cells; test: sensitivity of mdr lines, MDA-231 parent; format: cell-based; details: Homo sapiens, MDA-MB-231
[9] = system: Colon 38; test: zone of inhibition, Colon 38
[10] = system: HL-60 parent cells; test: sensitivity of mdr lines, HL-60 parent; format: cell-based; details: Homo sapiens
[11] = system: KB C-1 (gp170+) cells; test: sensitivity of mdr lines, KB C-1; format: cell-based; details: KBC-1
[12] = system: L1210 BCNU cells; test: sensitivity of mdr lines, L1210 BCNU; format: cell-based; details: Mus musculus
[13] = system: MV522 cells; test: cells; format: cell-based, human; details: Homo sapiens, MV522, 2 h, read-out: Two hour IC50
[14] = system: HL-60 cells; test: cells; format: cell-based, human; details: Homo sapiens, HL-60
[15] = system: human lung adenocarcinoma MV522; test: animal or person; details: MV522, ip, read-out: life span
[16] = system: CFU-GM; test: colony formation zone size, CFU-GM; details: CFU-GM
[17] = system: KB VBL (gp170+) cells; test: sensitivity of mdr lines, KB VBL; format: cell-based
[18] = system: MCF-7, breast; test: cells; format: cell-based, human
[19] = system: HL60 cells (myeloid); test: cells; format: cell-based, human; details: Homo sapiens, HL-60, 2 h
[20] = system: CEM parent cells; test: sensitivity of mdr lines, CEM parent; format: cell-based
[21] = system: HL-60 ADR (gp150+) cells; test: sensitivity of mdr lines, HL-60 ADR; format: cell-based; details: Homo sapiens, HL60/ADR
[22] = system: L1210 CPA (cyclophos) cells; test: sensitivity of mdr lines, L1210 CPA; format: cell-based; details: Mus musculus
[23] = system: 8392 cells; test: cells; format: cell-based; details: 48 h, read-out: 48 hour IC50
[24] = system: 547, ovarian; test: inhibition of thymidine incorporation after two hour exposure, 547; format: cell-based; details: 2 h; Table 1; 547, two hour exposure
Method: as §1, §2

[25] = system: MDA-231, breast; test: cells; format: cell-based
[26] = system: HL60 cells; test: cells; format: cell-based; details: Homo sapiens, HL-60, 48 h, read-out: 48 hour IC50
[27] = system: L1210 PAM (melphalan) cells; test: sensitivity of mdr lines, L1210 PAM; format: cell-based; details: Mus musculus
[28] = system: L1210 DDPt (cis-plat) cells; test: sensitivity of mdr lines, L1210 DDPt; format: cell-based; details: Mus musculus
[29] = system: MCF7 ADR (GSH-transferase) cells; test: cells; format: cell-based; details: Homo sapiens
[30] = system: Molt-4 (human T-cell leukemia) xenograft; test: Molt-4 xenograft in athymic Balb/c nu/nu mice; format: in vivo; details: Molt-4, athymic mice; FIG. 4
[31] = system: 8392 cells (B-cell); test: cells; format: cell-based; details: 2 h
[32] = system: MCF7-wt parent (Breast) cells; test: sensitivity of mdr lines, MCF7-wt parent; format: cell-based; details: Homo sapiens
[33] = system: CEM Dox (gp170+) variant cells; test: sensitivity of mdr lines, CEM Dox; format: cell-based
[34] = system: human lung adenocarcinoma MV522; details: in vivo
[35] = system: Go; test: zone of inhibition, Go
[36] = system: KB parent cells; test: sensitivity of mdr lines, KB parent; format: cell-based
[37] = system: MDA-231 3-1 (gp170+) cells; test: sensitivity of mdr lines, MDA-231 3-1; format: cell-based; details: Homo sapiens, MDA-MB-231
[38] = system: L1210; test: zone of inhibition / colony formation, L1210
[39] = system: CEM VM-1 variant cells; test: sensitivity of mdr lines, CEM VM-1; format: cell-based; details: Homo sapiens, CEM-VM1
[40] = system: 8402, T-cell; test: inhibition of thymidine incorporation after two hour exposure, 8402; format: cell-based; details: 2 h, Table 1, 8402, two hour exposure
Method: as §1, §2

Question: How did the IC50 [1] turn out when CC1=C2C(=C[C@@](C)(CO)C2O)C(=O)[C@](C)(O)C12CC2 (stereo partly shown) [Illudin S] was run?
Answer: 4 ± 1 nM

Question: And the IC50 [2]?
Answer: 142 ± 15 nM

Question: And the ILS ([3]; 2.5 mg/kg IP once a day for 5 days)?
Answer: 44%

Question: What about the ILS ([3]; single bolus, 2.5 mg/kg IP) of the same compound?
Answer: 35%

Question: What about the IC50 [4] of the same compound?
Answer: 0.42 ± 0.08 nM

Question: What about the IC50 [5] of the same compound?
Answer: 3.7 ± 0.7 nM

Question: And the IC50 [6]?
Answer: 607 ± 70 nM

Question: And the IC50 [7]?
Answer: 14 nM

Question: And the IC50 [8]?
Answer: 0.85 ± 0.23 nM

Question: What about the “Zone of Inhibition” value ([9]; Colon 38, 0.63 ug/disc) of the same compound?
Answer: 0

Question: And the “Zone of Inhibition” value ([9]; Colon 38, 1.25 ug/disc)?
Answer: 0

Question: What about the “Zone of Inhibition” value ([9]; Colon 38, 2.50 ug/disc) of the same compound?
Answer: 30

Question: What about the IC50 [10] of the same compound?
Answer: 3.1 ± 1.1 nM

Question: And the IC50 [11]?
Answer: 0.69 ± 0.15 nM

Question: And the IC50 [12]?
Answer: 0.58 ± 0.08 nM

Question: And the IC50 [13]?
Answer: 19 ± 6 nM

Question: And the IC50 [14]?
Answer: 10 nM

Question: What about the response vs control in vivo at 0.25 mg/kg [15] of the same compound?
Answer: 104 ± 20%

Question: What about the response vs control in vivo at 2.5 mg/kg [15] of the same compound?
Answer: < 26%

Question: And the “Zone Size” value ([16]; dilution 1/1,000)?
Answer: 400

Question: And the “Zone Size” value ([16]; dilution 1/4,000)?
Answer: 200

Question: What about the “Zone Size” value ([16]; dilution 1/16,000) of the same compound?
Answer: 0

Question: And the “Zone Size” value ([16]; dilution 1/64,000)?
Answer: 0

Question: And the IC50 [17]?
Answer: 0.69 ± 0.11 nM

Question: What about the “sensitivity to illudin S” value [18] of the same compound?
Answer: markedly sensitive

Question: What about the IC50 ([18]; Homo sapiens, MCF7, 2 h) of the same compound?
Answer: 58 ± 5 nM

Question: And the IC50 [19]?
Answer: 7 ± 1 nM

Question: What about the IC50 ([19]; read-out: Two hour IC50) of the same compound?
Answer: 10 ± 1 nM

Question: What about the IC50 [20] of the same compound?
Answer: 8.3 ± 2.6 nM

Question: And the IC50 [21]?
Answer: 1.9 ± 0.8 nM

Question: And the IC50 [22]?
Answer: 0.46 ± 0.12 nM

Question: What about the IC50 [23] of the same compound?
Answer: 8 ± 2 nM

Question: And the IC50 [24]?
Answer: 607 ± 110 nM

Question: And the “sensitivity to illudin S” value [25]?
Answer: markedly sensitive

Question: What about the IC50 ([25]; Homo sapiens, MDA-MB-231, 2 h) of the same compound?
Answer: 2 ± 0.2 nM

Question: And the IC50 [26]?
Answer: 10 ± 1 nM

Question: What about the IC50 [27] of the same compound?
Answer: 0.62 ± 0.15 nM

Question: And the IC50 [28]?
Answer: 0.46 ± 0.12 nM

Question: And the IC50 ([29]; NCI/ADR-RES, read-out: Sensitivity of mdr lines)?
Answer: 3.7 ± 0.4 nM

Question: And the IC50 ([29]; read-out: daughter line IC50)?
Answer: 3.7 nM

Question: And the tumor growth [30]?
Answer: tumor growth delay

Question: What about the IC50 [31] of the same compound?
Answer: 236 ± 31 nM

Question: And the IC50 ([31]; read-out: Two hour IC50)?
Answer: 236 ± 2 nM

Question: What about the IC50 ([32]; MCF7-wt Parent, read-out: Sensitivity of mdr lines) of the same compound?
Answer: 0.88 ± 0.11 nM

Question: And the IC50 ([32]; MCF7-wt, read-out: parent IC50)?
Answer: 0.88 nM

Question: What about the IC50 [33] of the same compound?
Answer: 14 nM

Question: What about the “life span versus control” value [34] of the same compound?
Answer: no significant increase in the life span

Question: What about the “Zone of Inhibition” value ([35]; 0.63 ug/disc) of the same compound?
Answer: 3

Question: And the “Zone of Inhibition” value ([35]; 1.25 ug/disc)?
Answer: 70

Question: And the “Zone of Inhibition” value ([35]; 2.50 ug/disc)?
Answer: 240

Question: What about the IC50 [36] of the same compound?
Answer: 0.58 ± 0.12 nM

Question: And the IC50 [37]?
Answer: 0.89 ± 0.38 nM

Question: What about the “Zone of Inhibition” value ([38]; L1210, 0.63 ug/disc) of the same compound?
Answer: 320

Question: And the “Zone of Inhibition” value ([38]; L1210, 1.25 ug/disc)?
Answer: 400

Question: What about the “Zone of Inhibition” value ([38]; L1210, 2.50 ug/disc) of the same compound?
Answer: 500

Question: What about the “Zone Size” value ([38]; L1210, dilution 1/1,000) of the same compound?
Answer: 850

Question: And the “Zone Size” value ([38]; L1210, dilution 1/4,000)?
Answer: 600

Question: And the “Zone Size” value ([38]; L1210, dilution 1/16,000)?
Answer: 550

Question: What about the “Zone Size” value ([38]; L1210, dilution 1/64,000) of the same compound?
Answer: 300

Question: What about the IC50 [39] of the same compound?
Answer: 16.2 ± 6.4 nM

Question: And the IC50 [40]?
Answer: 669 ± 196 nM
